In patent US11911396B2, “Use of compound in preparation of drug for treating cerebral small vessel disease” (GUANGZHOU CELLPROTEK PHARMACEUTICAL CO., LTD, priority 2017, dated 2024):

How the values were obtained:
[1] = test system: IL-6; test: Western blot of IL-6 in prefrontal cortex brain tissue, acute hypobaric hypoxia model; assay type: in vivo, cynomolgus monkeys; settings: FIGS. 3A and 3B
Source text: FIG. 3. […] A. Protein expression of inflammatory factors IL-6, IL-1β and TNF-α in the brain tissue of the prefrontal cortex of cynomolgus monkeys; B. Statistics of protein relative gray scan values. NN: Normobaric Normoxia group (N=3); HH: Hypobaric Hypoxia group (N=3); HH+Triol: Hypobaric Hypoxia with Triol administration group (N=3); HH+PROG: Hypobaric Hypoxia with control drug administration group (N=3). The gray value was obtained by scanning with Image Lab software, and the relative value was obtained after normalizing with α-Tubulin. One-way ANOVA analysis and Dunnutt's t test were used to perform statistical tests, and in the latter each group was compared with the HH group, *, p<0.05; **, p<0.01.
(§1) 1) Preparation of protein samples (see the instructions of M-PER protein lysate): After the cells had been processed for the specified time, the medium was aspirated and then washed with 4° C. pre-chilled PBS (0.01M pH7.2˜7.3) for 3 times. […] 2) BCA protein quantification (see the instructions of BCA protein quantification kit): corresponding components were added to a 96-well detection plate by the ratio of quantification reagent A solution:B solution:ddH2O:protein=100:2:7.5:5, and albumin standards diluted in gradient concentration were added to draw a standard curve. […] After the reaction, the absorbance of each well at a wavelength of 562 nm was detected using a microplate reader. […]

[2] = test system: Iba-1 in microglia BV2; test: Western blot of Iba-1 in BV2 cells stimulated with hemoglobin and hypoxia, with or without CD163 RNA interference; assay type: cell-based; settings: 10 μM Triol, 20 μM hemoglobin and 1% hypoxia for 6 hours
Experimental: FIG. 7. […] According to the manufacturer's instructions, RNAiMAX was used to transfect CD163 No. 01 and scrambled interference fragment NC respectively to BV2 cells, BV2 cell culture medium was then added with or without 10 μM Triol, and BV2 cells were stimulated with 20 μM hemoglobin and 1% hypoxia for 6 hours, after which protein samples were collected, and the expression of microglial activation markers Iba-1 and CD11b was detected by Western blot.
as §1, with “times. 150-200 ul of M-PER protein lysate mixed with protease inhibitor (PMSF 100×) was added, which was lysed on ice for 10 minutes to fully lyse the cells.” for “times.”

C[C@@]12CCCC1C1C[C@@H](O)[C@@]3(O)C[C@@H](O)CC[C@]3(C)C1CC2 (stereo partly drawn) [Triol, 5α-androst-3β,5,6β-triol]
expression level of IL-6 [1]: significantly reduced
effect on the up-regulation of Iba-1 in hypoxia and hemoglobin-activated microglia cells ([2]; without CD163 interference): inhibitory effect
inhibitory effect on the up-regulation of Iba-1 after interfering CD163 ([2]; CD163 RNA interference, FIG. 7): cancelled
